Data published in article PMC6692071 (Journal of medicinal chemistry, 2018).
Entries after “also recorded” stand apart in the source; their conditions may differ.

Tests used:
human δ opioid receptor [1] = target: T1, human δ opioid receptor (Homo sapiens, UniProt P41143); conditions: mean ± SEM; cited from earlier work
human δ opioid receptor [2] = target: T1, human δ opioid receptor; experiment: biochemical
[3] = rat PK studies
human κ opioid receptor = human κ opioid receptor (Homo sapiens, UniProt P41145); conditions: mean ± SEM; cited from earlier work
human κ opioid receptor, sequence (P41145 whole entry): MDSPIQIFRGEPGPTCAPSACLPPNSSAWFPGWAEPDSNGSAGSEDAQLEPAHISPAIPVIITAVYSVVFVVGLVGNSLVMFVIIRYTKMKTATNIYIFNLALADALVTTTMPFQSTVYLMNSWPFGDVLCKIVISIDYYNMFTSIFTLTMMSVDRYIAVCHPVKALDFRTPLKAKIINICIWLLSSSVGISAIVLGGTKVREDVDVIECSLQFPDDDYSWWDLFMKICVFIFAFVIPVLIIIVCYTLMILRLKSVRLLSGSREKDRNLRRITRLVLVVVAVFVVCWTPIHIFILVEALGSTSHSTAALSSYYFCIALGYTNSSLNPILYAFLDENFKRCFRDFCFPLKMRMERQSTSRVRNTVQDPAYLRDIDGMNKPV

T1 sequence (P41143 whole entry): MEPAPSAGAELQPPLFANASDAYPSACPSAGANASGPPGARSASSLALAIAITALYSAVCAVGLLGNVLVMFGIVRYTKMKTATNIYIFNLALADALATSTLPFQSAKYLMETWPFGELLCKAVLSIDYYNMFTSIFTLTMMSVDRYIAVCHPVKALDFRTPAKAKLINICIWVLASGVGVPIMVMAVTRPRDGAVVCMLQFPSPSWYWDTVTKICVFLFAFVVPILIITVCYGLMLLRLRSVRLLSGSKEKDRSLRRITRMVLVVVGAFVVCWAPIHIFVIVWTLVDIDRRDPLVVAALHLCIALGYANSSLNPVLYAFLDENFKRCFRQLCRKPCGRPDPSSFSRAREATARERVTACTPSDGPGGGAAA

Kb (human δ opioid receptor [2]) [µM] | SMILES | Ke δ, DPDPE (human δ opioid receptor [1]) [nM] | also measured
 | CC1CCN(C[C@@H](NC(=O)[C@H]2Cc3ccc(O)cc3CN2)C(C)C)CC1 [4-MePDTic (43)] | >3000 | 
 | CC(C)[C@@H](CC1CCCCC1)NC(=O)[C@H]1Cc2ccc(O)cc2CN1 [Compound 1] | 640 ± 170 | 
> 3 | CC(C)[C@@H](CC1CCCCC1)NC(=O)[C@@H]1Cc2ccc(O)cc2CN1 [Compound 3, (3S)-N-[(1R)-1-(Cyclohexylmethyl)-2-methylpropyl]-7-hy-droxy-1,2,3,4-tetrahydroisoquinoline-3-carboxamide] |  | 
> 3 | CC(C)[C@H](CC1CCCCC1)NC(=O)[C@H]1Cc2ccc(O)cc2CN1 [Compound 4, (3R)-N-[(1S)-1-(Cyclohexylmethyl)-2-methylpropyl]-7-hydroxy-1,2,3,4-tetrahydroisoquinoline-3-carboxamide] |  | 
> 3 | CC(C)[C@H](CC1CCCCC1)NC(=O)[C@@H]1Cc2ccc(O)cc2CN1 [Compound 5, (3S)-N-[(1S)-1-(Cyclohexylmethyl)-2-methylpropyl]-7-hydroxy-1,2,3,4-tetrahydroisoquinoline-3-carboxamide] |  | 
 | CC(C)[C@@H](CC1CCCCC1)NC(=O)[C@H]1Cc2ccc(C(N)=O)cc2CN1 [Compound 9, (3R)-N^3-[(1R)-1-(Cyclohexylmethyl)-2-methylpropyl]-1,2,3,4-tetrahydroisoquinoline-3,7-dicarboxamide] |  | brain penetration [3]: brain penetration
 | CC(C)[C@@H](CC1CCCC1)NC(=O)[C@H]1Cc2ccc(O)cc2CN1 [Compound 13, (3R)-N-[(1R)-1-(Cyclopentylmethyl)-2-methylpropyl]-7-hydroxy-1,2,3,4-tetrahydroisoquinoline-3-carboxamide] |  | brain penetration [3]: brain penetration; also recorded: crossed the blood–brain barrier; also recorded: penetrate the brain
 | CC(C)[C@@H](CN1CCCCC1)NC(=O)[C@H]1Cc2ccc(O)cc2CN1 [Compound 42, (3R)-7-hydroxy-N-[(1S)-2-methyl-1-(piperidin-1-ylmethyl)propyl]-1,2,3,4-tetrahydroisoquinoline-3-carboxamide] | >3000 | 
 | CC(C)[C@@H](CN1CC[C@@](C)(c2cccc(O)c2)[C@@H](C)C1)NC(=O)[C@H]1Cc2ccc(O)cc2CN1 [JDTic, (3R)-1,2,3,4-tetrahydro-7-hydroxy-N-[(1S)-1-[[(3R,4R)-4-(3-hydroxy-phenyl)-3,4-dimethyl-1-piperidinyl]methyl]-2-methylpropyl]-3-iso-quinolinecarboxamide] |  | Ke κ, U69,593 (human κ opioid receptor): 0.02 ± 0.01 nM
